The text below walks through data of patent publication US7981939B2, “Application of 2-bromide-isovanillin for the manufacture of a medicament for anti-cancer or/and radiation/chemotherapy sensitization” (Institute of Radiation Medicine, Academy of Military …, priority 2005, dated 2011).

Experiment [1] deals with human cervical cancer cell line HeLa. Briefly: MTT assay, proliferation of HeLa cells. The class given is cell-based. To be noted: for effect on the proliferation of HeLa cells: concentrations of less than 40 μmol/L, up to 72 hrs. As for the experimental part: Human cervical cancer cell line HeLa, human liver cancer cell line HepG2/7221/7402, human ovarian cancer cell line HOC8/A2780, human glioma cell line BT325, lung cancer cell line A549, brain metastatic lung cancer cell line BT72 and normal human hepatic cell line LO2 were all grown in DMEM liquid medium supplemented with 10% newborn calf serum. Human leukemia cell line Jurkat was grown in 1640 medium supplemented with 10% newborn calf serum. The above cell lines were cultured in a CO2 incubator at 5% CO2 at 37° C.
By way of example, human cervical cancer cell line HeLa was used to study the effect of vanillin on the proliferation of cancer cells by MTT assay. Specifically, human cervical cancer cells HeLa were seeded into a 96-well plate at a density of 5×10^3 cells/well, and were divided into four groups. To each of the groups vanillin was added at a concentration of 0, 100, 250 or 500 μmol/L, respectively, and was allowed to grow for 4 days. Using the MTT assay, the optical density (OD) values at 490 nm were measured and recorded every day, wherein the OD value is indicative of the number of cells, i.e., the proliferation of cells.
By way of example, human cervical cancer cell line HeLa was used to study the effect of several vanillin derivatives for 72 hrs on the proliferation of cancer cells by MTT assay. Specifically, human cervical cancer cells HeLa were seeded into a 96-well plate at a density of 5×10^3 cells/well, and were divided into four groups. To each of the groups were added increasing concentrations (0, 10, 20, 30, 40 μmol/L) of vanillin derivatives ethyl vanillin (Code No. VAND3206), 4-methoxy vanillin (Code No. VAND3207), isovanillin (Code No. VAND3209) and 2-bromo-isovanillin (Code No. VAND3208), and the cells were cultured for 72 hrs. Using the MTT assay, the optical density (OD) values at 490 nm were measured and recorded every day, wherein the OD value is indicative of the number of cells, i.e., the proliferation of cells.
By way of example, human cervical cancer cell line HeLa was used to study the inhibitory effect of 2-bromo-isovanillin at different concentrations for different periods of time on the proliferation of cancer cells by MTT assay. Specifically, human cervical cancer cells HeLa were seeded into a 96-well plate at a density of 5×10^3 cells/well, and were divided into […]. To each of the groups 2-bromo-isovanillin was added at a concentration of 0, 10, 20, 30, 40 or 50 μmol/L, and was cultured for 14 days, respectively. Using the MTT assay, the optical density (OD) values at 490 nm were measured and recorded every day, wherein the OD value is indicative of the number of cells, i.e., the proliferation of cells.
A general note: Tetrazolium dyes change colour on reduction, which living cells bring about.

The target in experiment [2] is T1, nuclear protein DNA-PKcs serine/threonine protein kinase (Homo sapiens, UniProt P78527).
T1 construct: adding nuclear proteins to the solid phase reaction system; endogenous in cells; host or cells: HepG2 human liver cancer cells (nuclear protein extract)
Briefly: DNA-PKcs kinase activity in nuclear protein of treated HepG2 cells. The class given is cell-based. To be noted: HepG2, 100 μmol/L, 24 hrs. Here is the method: The activity of nuclear protein DNA-PKcs serine/threonine protein kinase in human liver cancer cells HepG2 treated with 0, 10, 20, 40, 100 μmol/L 2-bromo-isovanillin for 24 hrs was determined by using […] DNA dependent protein kinase assay kit (Promega), according to the manufacturer's instructions, and the treatment with 100 μmol/L vanillin for the same period of time served as control. Basically, the assay was carried out by immobilizing the phosphorylation substrate specific to DNA-PKcs, i.e., a peptide derived from p53 protein onto a cellulose membrane, adding nuclear proteins to the solid phase reaction system, isotopically labeling the substrate by phosphorylation using γ-^32P ATP, removing non-specific signals after the isotope labeling, and visualizing the kinase activity upon X-ray film developing.

The structures appear in SMILES notation.

Turning to `COc1ccc(C=O)cc1O` [VAND3209, isovanillin], the “effect on the proliferation of HeLa cells” value in experiment [1] is on record as “no inhibitory effect”. For `CCOc1cc(C=O)ccc1O` [ethyl vanillin], the “effect on the proliferation of HeLa cells” value in experiment [1] is on record as “no inhibitory effect”. Turning to `COc1cc(C=O)ccc1O` [vanillin], the “inhibitory effect on DNA-PKcs kinase activity compared with 2-bromo-isovanillin” value in experiment [2] is “significantly weaker”. In experiment [1] (HeLa, 0-500 μmol/L, 4 days, OD at 490 nm), the “concentration at which proliferation of cancer cells was effectively inhibited” value is given as “above 250 μmol/L”.
